Laboratory results as given in patent US8877683B2, “Substituted pyridines having herbicidal activity” (BASF SE, priority 2010, dated 2014).

What was measured:
Assay in all cases: greenhouse post-emergence herbicidal test
Type in all cases: in vivo
Details in all cases: application rate 0.25 kg/ha
[1] = system: BRSNW (Brassica napus (winter))
From the text: (§1) The culture containers used were plastic flowerpots containing loamy sand with approximately 3.0% of humus as the substrate. The seeds of the test plants were sown separately for each species.
(§2) For the post-emergence treatment, the test plants were first grown to a height of 3 to 15 cm, depending on the plant habit, and only then treated with the active ingredients which had been suspended or emulsified in water. For this purpose, the test plants were either sown directly and grown in the same containers, or they were first grown separately as seedlings and transplanted into the test containers a few days prior to treatment.
(§3) Depending on the species, the plants were kept at 10-25° C. or 20-35° C. The test period extended over 2 to 4 weeks. During this time, the plants were tended, and their response to the individual treatments was evaluated.
(§4) Evaluation was carried out using a scale from 0 to 100. 100 means no emergence of the plants, or complete destruction of at least the aerial moieties, and 0 means no damage, or normal course of growth. A good herbicidal activity is given at values of at least 70 and a very good herbicidal activity is given at values of at least 85.
(§5) The herbicidal activity of the substituted pyridine compounds I-2 and I-13 according to this invention was tested in comparison with the corresponding pyrazine compounds Nos. C-11 and C-19 disclosed on page 48 of WO 2010/130970 (not of the invention). These comparative experiments were performed at an application rate of 0.25 kg/ha in a post-emergence treatment by following the same procedure as described above in the Use Examples. The results of Comparative Examples 1 and 2 are indicated below in Tables II and III.

[2] = system: CHEAL (Chenopodium album)
From the text: as §1, §2, §3, §4, §5

[3] = system: ECHCG (Echinocloa crus-galli)
From the text: as §1, §2, §3, §4, §5

[4] = system: AVEFA (Avena fatua)
From the text: as §1, §2, §3, §4, §5

[5] = system: ALOMY (Alopercurus myosuroides)
From the text: as §1, §2, §3, §4, §5

Compound | herbicidal activity against BRSNW [1] | herbicidal activity against CHEAL [2] | herbicidal activity against ECHGG [3] | herbicidal activity against AVEFA [4] | herbicidal activity against ALOMY [5]
O=S1(=O)Cc2nccnc2C(O)=C1c1c(Cl)cccc1Cl [reference compound] | good (A good herbicidal activity is given at values of at least 70) | less than good | less than good |  | 
O=S1(=O)Cc2nccnc2C(O)=C1c1ccccc1C(F)(F)F [reference compound] |  |  | less than good | less than good | good (A good herbicidal activity is given at values of at least 70)
O=S1(=O)Cc2cccnc2C(O)=C1c1ccccc1C(F)(F)F [I-2, 6,6-Dioxo-7-(2-trifluoromethyl-phenyl)-5,6-dihydro-thiopyrano[4,3-b]pyridin-8-ol] |  |  | very good (a very good herbicidal activity is given at values of at least 85) | very good (a very good herbicidal activity is given at values of at least 85) | very good (a very good herbicidal activity is given at values of at least 85)
O=S1(=O)Cc2cccnc2C(O)=C1c1c(Cl)cccc1Cl [I-13] | very good (a very good herbicidal activity is given at values of at least 85) | very good (a very good herbicidal activity is given at values of at least 85) | very good (a very good herbicidal activity is given at values of at least 85) |  | 
CC(C)(C)C(=O)OC1=C(c2ccccc2C(F)(F)F)S(=O)(=O)Cc2cccnc21 [I-8, 2,2-Dimethyl-propionic acid 6,6-dioxo-7-(2-trifluoromethyl-phenyl)-5,6-dihydro-thiopyrano[4,3-b]pyridin-8-yl ester] |  |  |  |  | good (A good herbicidal activity is given at values of at least 70)
